Source: paper PMC3242641 (European journal of medicinal chemistry, 2011)
Values belong to the compound of their own block, whether it stands above or below them.

Tests used:
PBM cells [1] = tested on: PBM cells
wild-type HBV = test: Anti-HBV activity, HepG2 AD38 system; type: cell-based; details: read-out: Anti-HBV activity EC50
HIV-1 = type: cell-based
WT HIV-1 RT [2] = molecular target: T1, WT HIV-1 RT (Human immunodeficiency virus type 1 group M subtype B, UniProt P04585); type: biochemical
human PBM cells = details: 4 h at 50 μM, PHA activated human PBM cells, 37 °C
PBM cells [3] = test: Cytotoxicity in PBM cells; details: cell type not named in the sentence (PBM, CEM and Vero were tested)
WT HIV-1 RT [4] = molecular target: T1, WT HIV-1 RT; details: read-out: K, dNTP; cited from earlier work

Compound: 9-(3-Azido-2,3-dideoxy-β-L-ribofuranosyl)-2-fluoro-6-aminopurine [Compound 26]
IC50 (PBM cells [1]): > 100 µM | EC50 (wild-type HBV): > 100 µM | EC90 (HIV-1; read-out: Anti-HIV activity EC90): > 100 µM | IC50 (Vero cells): > 100 µM | IC50 (CEM cells): > 100 µM

Compound: Nc1ccn([C@@H]2CS[C@H](COP(=O)(O)OP(=O)(O)OP(=O)(O)O)O2)c(=O)n1 [Compound 3TC-TP]
Incorporation, fold better than the L-3′-azido-ddNTPs (WT HIV-1 RT [2]): 12-500 fold

Amount of intracellular nucleoside triphosphate (TP) detected (human PBM cells): no detectable TPs
Compound: [N-]=[N+]=N[C@@H]1C[C@@H](n2cnc3c(Cl)ncnc32)O[C@H]1CO [Compound 7, 9-(3-Azido-2,3-dideoxy-β-L-ribofuranosyl)-6-chloro-9H-purine]

Amount of intracellular nucleoside triphosphate (TP) detected (human PBM cells): below the level of detection
Compound: COc1ncnc2c1ncn2[C@@H]1C[C@@H](N=[N+]=[N-])[C@H](CO)O1 [Compound 9, 9-(3-Azido-2,3-dideoxy-β-L-ribofuranosyl)-6-methoxyl-9H-purine]

Compound: CCOC(=O)[C@H](C)NP(=O)(OC[C@@H]1O[C@H](n2cnc3c(N)ncnc32)C[C@H]1N=[N+]=[N-])Oc1ccccc1 (stereo partly drawn) [Compound 11, 3′-Azido-2′, 3′-dideoxy-β-L-adenosine-5′-O-[phenyl-(ethoxy-L-alaninyl)]-phosphate]
Increase in anti-HIV activity versus 10 (HIV-1): 45 fold

Amount of intracellular nucleoside triphosphate (TP) detected (human PBM cells): below the level of detection
Compound: CNc1ncnc2c1ncn2[C@@H]1C[C@@H](N=[N+]=[N-])[C@H](CO)O1 [Compound 12, 9-(3-Azido-2,3-dideoxy-β-L-ribofuranosyl)-6-methylamino-9H-purine]

Compound: CCOC(=O)[C@H](C)NP(=O)(OC[C@@H]1O[C@H](n2cnc3c(O)nc(N)nc32)C[C@H]1N=[N+]=[N-])Oc1ccccc1 (stereo partly drawn) [Compound 16, 3′-Azido-2′, 3′-dideoxy-β-L-guanosine-5′-O-[phenyl-(ethoxy-L-alaninyl)]-phosphate]
Anti-HIV-1 activity, in words (HIV-1): inactive

Amount of intracellular nucleoside triphosphate (TP) detected (human PBM cells): no detectable TPs
Compound: [N-]=[N+]=N[C@@H]1C[C@@H](n2cnc3c(Cl)nc(N)nc32)O[C@H]1CO [Compound 17, 9-(3-Azido-2,3-dideoxy-β-L-ribofuranosyl)-2-amino-6-chloropurine]

Compound: CCOC(=O)[C@H](C)NP(=O)(OC[C@@H]1O[C@H](n2cnc3c(Cl)nc(N)nc32)C[C@H]1N=[N+]=[N-])Oc1ccccc1 (stereo partly drawn) [Compound 18, 9-(3-Azido-2,3-dideoxy-β-L-ribofuranosyl)-2-amino-6-chloropurine-5-O-[phenyl-(ethoxy-L-alaninyl)]-phosphate]
Amount of intracellular intact prodrug detected (human PBM cells): 12 fmol/10^6 cells

Compound: CCOC(=O)[C@H](C)NP(=O)(OC[C@@H]1O[C@H](n2cnc3c(N)nc(N)nc32)C[C@H]1N=[N+]=[N-])Oc1ccccc1 (stereo partly drawn) [Compound 22, 9-(3-Azido-2,3-dideoxy-β-L-ribofuranosyl) -2,6-diaminopurine-5-O-(phenyl-[ethoxyl-L-alaninyl])-phosphate]
Observed toxicity (no toxicity up to) (PBM cells [3]): > 100 µM

Compound: Cc1cn([C@H]2C[C@H](N=[N+]=[N-])[C@@H](CO)O2)c(=O)[nH]c1=O [Compound 27, 3′-Azido-2′-3′-dideoxy-β-L-thymidine]
Anti-HIV-1 activity, in words (HIV-1): inactive

Compound: CCOC(=O)[C@H](C)NP(=O)(OC[C@@H]1O[C@H](n2cc(C)c(=O)[nH]c2=O)C[C@H]1N=[N+]=[N-])Oc1ccccc1 (stereo partly drawn) [Compound 28, 1-(3′-Azido-2′, 3′-dideoxy-β-L-thymidine)-O-(phenyl-[ethoxyl-L-alaniny])-phosphate]
Anti-HIV-1 activity, in words (HIV-1): inactive

Compound: Nc1ccn([C@H]2C[C@H](O)[C@@H](COP(=O)(O)OP(=O)(O)OP(=O)(O)O)O2)c(=O)n1 [dCTP]
Kd (WT HIV-1 RT [4]): 1.1 ± 0.4 µM
